Laboratory results from patent US20230364051A1, “FORMULATIONS AND METHODS FOR IMPROVING AVIAN HEALTH” (CORNELL UNIVERSITY, priority 2022, published 2023).
Marks after values point to notes of the source that are not given here.

Columns and labels:
[1] = system: BBM Fe-related proteins and intestinal bacterial populations; details: in vivo; cited from earlier work
[2] = Body weight and cecum weight at hatch after intraamniotic administration; type: in vivo, Gallus gallus
Method: (§1) Cornish-cross fertile broiler eggs (Gallus gallus, n = 39) were obtained from a commercial hatchery (Moyer’s chicks, Quakertown, PA, USA). The eggs were incubated under optimal conditions at the Cornell University Animal Science Poultry Farm Incubator [18]. All animal protocols were approved by Cornell University Institutional Animal Care and Use committee (IACUC #2020-0077). At day 17 of embryonic incubation, eggs containing viable embryos were weighed and divided into 5 groups, with all treatment groups assigned eggs of similar weight frequency distribution. Each group was then injected with the specific solution (1 mL per egg) with a 21-gauge needle into the amniotic fluid. Treatments in powder form were separately diluted in DI H2O. Two treatment groups (1.25, 2.5 wt. %), two controls (H2O and non-injected), and a positive control (5 wt. % inulin) were administered. After injection, the injection holes were sealed with cellophane tape and the eggs were placed in hatching baskets such that each treatment was equally represented at each incubator location. Immediately upon hatch (day 21), blood was taken for hemoglobin determination and all chicks were then euthanized by CO2 exposure. The small intestine, pectoral muscle, cecum, and liver were collected, immediately frozen in liquid nitrogen, and then stored in a -80° C. freezer until analysis.

[3] = Blood hemoglobin (QuantiChrom Hemoglobin Assay) at hatch after intraamniotic administration; type: in vivo, Gallus gallus; details: 5 wt. % inulin intraamniotic, day 17; blood at hatch
Method: as §1, with “All animal protocols were approved by Cornell University Institutional Animal Care and Use committee (IACUC #2020-0077). At day 17 of embryonic incubation, eggs containing viable embryos were weighed and divided into 5 groups, with all treatment groups assigned eggs of similar weight frequency distribution.” left out, “Two treatment groups (1.25, 2.5 wt. %), two controls (H2O and non-injected), and a positive control (5 wt. % inulin) were administered.” left out
Blood was collected using micro-hematocrit heparinized capillary tubes (Fisher Scientific, Waltham, MA, USA). Blood Hb concentrations were determined spectrophotometrically using the QuantiChromTM Hemoglobin Assay (DIHB-250, BioAssay Systems, Hayward, CA, USA) following the kit manufacturer’s instructions.

[4] = Pectoral muscle glycogen analysis after intraamniotic administration; type: in vivo, Gallus gallus; details: 5 wt. % inulin intraamniotic, day 17; pectoral muscle at hatch
Method: as §1
Glycogen analysis was obtained from pectoralis muscle as previously described. Briefly, the frozen pectoral muscle samples were homogenized in 8 wt. % perchloric acid. Samples were then centrifuged at 12,000 × g for 15 minutes. The supernatant was removed, and 1.0 mL of petroleum ether was added to each tube. After mixing, the petroleum ether fraction was removed and samples from the bottom layer were transferred to a 96-well plate containing 300 µL of color reagent. All samples were read at a wavelength of 450 nm in an ELISA reader and the amount of glycogen was calculated according to a standard curve. The amount of glycogen present in pectoral sample was determined by multiplying the weight of the tissue by the amount of glycogen per 1 g of wet tissue.

duodenum = assay: Duodenal tissue morphology examination (villi, crypts, goblet cells, Paneth cells); type: in vivo, Gallus gallus; details: 5 wt. % inulin intraamniotic, day 17; duodenum at hatch
Method: as §1, with “All animal protocols were approved by Cornell University Institutional Animal Care and Use committee (IACUC #2020-0077). At day 17 of embryonic incubation, eggs containing viable embryos were weighed and divided into 5 groups, with all treatment groups assigned eggs of similar weight frequency distribution.” left out, “Two treatment groups (1.25, 2.5 wt. %), two controls (H2O and non-injected), and a positive control (5 wt. % inulin) were administered.” left out
Intestinal morphology examination was performed as was previously described. Duodenum samples were fixed in fresh 4 wt. % (v/v) buffered formaldehyde, dehydrated, cleared, and embedded in paraffin. Serial sections were cut at 5 µm and placed on glass slides. Intestinal sections were deparaffinized in xylene, rehydrated in a graded alcohol series, stained with Alcian Blue/Periodic acid-Schiff, and examined by light microscopy. The following variables were measured in the intestine: villus height, villus width, crypt depth, Paneth cell number per crypt, Paneth cell width, goblet cell number, goblet cell diameter, types of goblet cells in the villi epithelium, and types of goblet cells within the crypts. Measurements in each segment were performed with a light microscope using CellSens Standard software (Olympus, Waltham, MA, USA).

L. plantarum = assay: Duodenal bacterial populations by PCR of 16S rDNA: L. plantarum; type: in vivo, Gallus gallus; details: 5 wt. % inulin vs H2O injected control, p < 0.05; duodenum, day of hatch
Method: as §1, with “Immediately upon hatch (day 21), blood was taken for hemoglobin determination and all chicks were then euthanized by CO2 exposure. The small intestine, pectoral muscle, cecum, and liver were collected, immediately frozen in liquid nitrogen, and then stored in a -80° C. freezer until analysis.” left out
(§2) Primers for Lactobacillus, Bifidobacterium, L. Plantarum, Clostridium, and E. coli were designed according to previously published data. […] PCR products were separated by electrophoresis on 2 wt. % agarose gel, stained with ethidium bromide, and quantified using the Quantity One 1-D analysis software (BioRad, Hercules, CA, USA).

Clostridium spp. = assay: Duodenal bacterial populations by PCR of 16S rDNA: Clostridium; type: in vivo, Gallus gallus; details: 5 wt. % inulin vs no injection and H2O injection controls, p < 0.05; duodenum, day of hatch
Method: as §1, with “Immediately upon hatch (day 21), blood was taken for hemoglobin determination and all chicks were then euthanized by CO2 exposure. The small intestine, pectoral muscle, cecum, and liver were collected, immediately frozen in liquid nitrogen, and then stored in a -80° C. freezer until analysis.” left out
as §2

[5] = 5 wt. % inulin intraamniotic, day 17, at hatch

## O=c1c(-c2ccc(O)cc2)coc2cc(O)ccc12 [daidzein]
[1]
  Expression of BBM Fe-related proteins and intestinal bacterial populations: affected

## inulin [reference compound]
[2]; [5]
  Average Body Weight: 46.04 ± 1.18 ^ab g
  Average Cecum Weight: 0.43 ± 0.05 ^b g
[2]; 5 wt. % inulin, p < 0.05
  Cecum weight of no injection and H2O groups compared to treated group: significantly greater values
[3]
  Average Hb: 9.56 ± 0.92 ^c g/dL
[4]
  Average Glycogen: 0.002 ± 0.001 ^b mg/g
duodenum
  # Crypt Paneth Cells: 2.56 ± 0.09 ^c
  Crypt Depth: 35.00 ± 0.43 ^b µm
  Crypt Goblet Cell Diameter: 2.51 ± 0.02 ^c µm
  Crypt Goblet Cell Number Acidic: 7.97 ± 0.16 ^b Unit
  Crypt Goblet Cell Number Mixture: 1.19 ± 0.08 ^c Unit
  Crypt Goblet Cell Number Neutral: 0.00 ± 0.00 ^a Unit
  Crypt Goblet Cell Number Total: 9.15 ± 0.16 ^b Unit
  Crypt Paneth cell Diameter: 1.68 ± 0.03 ^b µm
  Villi Goblet Cell Diameter: 2.74 ± 0.03 ^e µm
  Villi Goblet Cell Number Acidic: 16.39 ± 0.54 ^c Unit
  Villi Goblet Cell Number Mixture: 6.53 ± 0.30 ^a Unit
  Villi Goblet Cell Number Neutral: 0.10 ± 0.02 ^b Unit
  Villi Goblet Cell Number Total: 23.02 ± 0.60 ^b Unit
  Villus Height: 246.64 ± 5.14 ^a µm
  Villus Surface Area: 206.92 ± 6.37 ^a mm2
  Villus Width: 50.98 ± 1.03 ^a µm
L. plantarum
  Relative abundance of L. plantarum: significantly increased
Clostridium spp.
  Relative abundance of Clostridium spp.: significantly increased
